{"source": "paper PMC11859423", "about": "“Fluorescent Probes to Image the KCa3.1 Channel in Tumor Cells” (Pharmaceutics, 2025)", "biological_target": "T1, KCa3.1 channel in A549-3R cells (Homo sapiens, UniProt O15554)", "T1 construct": "the non-small cell lung cancer cell line A549-3R with a high expression of the KCa3.1 channel was employed; endogenous in cells; host or cells: A549-3R cells", "experiment": "Co-staining of permeabilized A549-3R cells with fluorescent probe and antibodies (Protocols 7a and 7b)", "type": "cell-based", "conditions": "for Average Green (in % ± SD): green = channels stained with 10b; for Average Red (in % ± SD): red = channels stained with antibodies", "procedure": "The cells were stained with antibodies as described in Protocol 6. Afterwards, the cells were stained with 300 µL of staining solution and the mixture was incubated for 10 min at 4 °C in a dark chamber. Subsequently, the cells were washed five times with 1 mL of PBS and were used for fluorescence microscopy.\nThe cells were treated as described in Protocol 5 to permeabilize the cells. Subsequently, staining solution was added and the cells were incubated for 10 min as described in Protocol 1. After washing the cells three times with PBS, Protocol 6 for the antibody staining was performed. Subsequently, the cells were used for fluorescence microscopy.\nFor the co-staining experiments, the permeabilized A549-3R cells were first incubated with the antibodies and subsequently stained with bodipy-labeled senicapoc derivative 10b for 10 min (protocol 7a). The images were analyzed with the FITC filter set to observe the fluorescence generated by 10b and the TRITC filter set to observe the fluorescence emitted by the secondary antibody (Figure 5). In a further experiment, the order of staining modalities was reversed, i.e., the cells were first labeled with fluorescent probe 10b for 10 min and second with the antibodies (Figure 6).\nThe obtained green, red and yellow dots were analyzed as described in the cell staining experiments above. The density of antibody-stained KCa3.1 channels (red dots) was higher than the density of KCa3.1 channels stained with bodipy-labeled senicapoc derivative 10b independent of the order of staining modality (Table 3). […] A successful co-staining was only counted when the distance between the signal peak maxima was ≤1 pixel.", "note": "Values joined by “and” are separate entries in the source; they are usually repeats but may differ in a detail not shown here. Identical values can stand only once.", "data": [{"smiles": "CCC1=C(C)C2=C(c3ccc(OCCOCCn4cc(COc5ccc(C(C(N)=O)(c6ccccc6)c6ccc(F)cc6)cc5)nn4)cc3)c3c(C)c(CC)c(C)n3[B-](F)(OC)[N+]2=C1C", "note": "(centres unmarked) [10b, 2-{4-[(1-{2-[4-(2,6-Diethyl-4-fluoro-4-methoxy-1,3,5,7-tetramethyl-4-bora-3a,4a-diaza-s-indacen-8-yl)phenoxy]ethoxyethyl}-1,2,3-triazol-4-yl)methoxy]phenyl}-2-(4-flluorophenyl)-2-phenylacetamide]", "values": [{"measurement": "Average Green (in % ± SD)", "setting": "Protocol 7a (antibody first)", "result": "41.5% and 41.5 ± 4.75%"}, {"measurement": "Average Red (in % ± SD)", "setting": "Protocol 7a (antibody first)", "result": "58.5 ± 9.60", "unit": "%"}, {"measurement": "Average Green (in % ± SD)", "setting": "Protocol 7b (10b first)", "result": "41.4 ± 5.56", "unit": "%"}, {"measurement": "Average Red (in % ± SD)", "setting": "Protocol 7b (10b first)", "result": "58.6 ± 8.52", "unit": "%"}, {"measurement": "co-staining of a single KCa3.1 channel with both imaging tools (yellow dots)", "setting": "distance between signal peak maxima ≤1 pixel counted as co-staining", "result": "hardly observed"}]}]}
